pIC50: −log10 of the molar value. Active and inactive are the calls of the source.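 The calls were made as follows: active = compounds that cut viability of the normal-p53 cell line panel with an IC50 under 10 µM; inactive = IC50 above 10 µM.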
Legend:
Test in all cases: growth inhibition in A549, HCT116, IMR90 – cell-based, TP53 wild-type panel, dry powder, selectivity assay for cell-selective anticancer agent project, dose response (AID 743141)
[1] = tested on: A549 viability, CellTiter-Glo luminescence, 48 h
[2] = tested on: IMR90 viability, CellTiter-Glo luminescence, 48 h
[3] = tested on: HCT116 viability, CellTiter-Glo luminescence, 48 h

Row | SMILES | IC50 [1] | pIC50 [2] | pIC50 [3]
1 | O=C1CN2Cc3c(ccc(Cl)c3Cl)N=C2N1 | > 10 µM (inactive) | < 5.00 | < 5.00
2 | C[C@@H]1CC(=O)NN=C1c1ccc(-c2cncnc2)cc1 | > 10 µM (inactive) | < 5.00 | < 5.00
3 | C[C@@H]1CC(=O)NN=C1c1ccc(N2CCOCC2)cc1 | > 10 µM (inactive) | < 5.00 | < 5.00
4 | C[C@@H]1CC(=O)NN=C1c1ccc(N2CCOCC2)c(F)c1 | > 10 µM (inactive) | < 5.00 | < 5.00
5 | C[C@@H]1CC(=O)NN=C1c1ccc(Cl)cc1 | > 10 µM (inactive) | < 5.00 | < 5.00
6 | C[C@@H]1CC(=O)NN=C1c1ccc(C2CCCCC2)cc1 | > 10 µM (inactive) | < 5.00 | < 5.00
7 | CCN1N=C(c2ccc(N(CC)CC)cc2)[C@H](C)CC1=O | > 10 µM (inactive) | < 5.00 | < 5.00
8 | C[C@H]1CC(=O)NN=C1c1ccc(N2CCOCC2)c(F)c1 | > 10 µM (inactive) | < 5.00 | < 5.00
9 | CC(=O)Nc1ccc(C2=NNC(=O)C[C@H]2C)cc1 | > 10 µM (inactive) | < 5.00 | < 5.00
10 | C[C@@H]1CC(=O)NN=C1c1ccc(F)c(F)c1 | > 10 µM (inactive) | < 5.00 | < 5.00
11 | CCN(CC)c1ccc(C2=NNC(=O)CC2C)cc1[N+](=O)[O-] (stereo unspecified) | > 10 µM (inactive) | < 5.00 | < 5.00
12 | COc1cc2c(cc1OC)-c1cc(=Nc3c(C)cc(C)cc3C)n(C)c(=O)n1CC2 | > 10 µM (inactive) | < 5.00 | < 5.00
